Legend:
[1] = Solubility of glibenclamide in the presence of both α-CD and SDS; assay type: physicochemical; details: 3 days at room temperature
Protocol: To an aqueous solution (4 mL) containing α-CD and SDS was added glibenclamide (20 mg), which was stirred for 3 days at room temperature. This solution was filtered using a Millex-HV filter (Millipore) with a pore size of 0.45 μm, and the glibenclamide concentration in the filtrate was measured by HPLC using a Unison UK-C18 column (Imtakt).

[2] = pharmacopoeia term; cited from earlier work

SMILES	Solubility of glibenclamide relative to SDS concentration (FIG. 6) ([1]; α-CD added)	Solubility of glibenclamide relative to SDS concentration (FIG. 6) ([1]; α-CD concentration 0.0 mM)	Solubility in water [2]
COc1ccc(Cl)cc1C(=O)NCCc1ccc(S(=O)(=O)NC(=O)NC2CCCCC2)cc1 [glibenclamide, 4-[2-(5-Chloro-2-methoxybenzoylamino)ethyl](N-cyclohexylcarbamoyl)benzene-sulfonaide]	a bending point appeared indicating minimum solubility	solubility rose as the SDS concentration rose	practically insoluble in water
Cc1cccc(Nc2ccccc2C(=O)O)c1C [mefenamic acid, 2-(2,3-dimethylphenylamino)benzoic acid]	–	–	practically insoluble in water
CC(=O)S[C@@H]1CC2=CC(=O)CC[C@]2(C)[C@H]2CC[C@@]3(C)[C@@H](CC[C@@]34CCC(=O)O4)[C@H]12 [spironolactone, 7α-acetylsulfanyl-3-oxo-17α-pregn-4-ene-21,17β-carbolactone]	–	–	practically insoluble in water
